Key:
[1] = Solution stability of ^177Lu-C at −78° C., RCP by radio-HPLC; type: physicochemical; conditions: for RCP (%) t = 0 / RCP (%) t = 3 days / RCP (%) t = 7 days / RCP (%) change: ^177Lu-C prepared using 2 mg GA; for RCP (%) t = 0 / RCP (%) t = 3 days / RCP (%) t = 7 days: degassed, second stabilizer (20 mg AA, 20 mg DSA, 10 mg 2,3,4-THBA, 10 mg 3,4,5-THBA) added post-labeling; for RCP (%) change: second stabilizer added post-labeling, t = 0 to 7 days; for stabilization compared with AA and DSA: ^177Lu-C, second stabilizer
Experimental: The integrity of a radiopharmaceutical is measured by the radiochemical purity (RCP) of the radiolabeled compound using ITLC or more preferably HPLC. The advantage of using HPLC is that radio-impurities caused by radiolytic degradation can be separated from the radiopharmaceutical under optimized chromatographic conditions. […] The radiopharmaceutical compositions of this invention are effective in maintaining the long-term stability of samples that have been frozen, thawed, and re-tested periodically for 7 days.
The initial RCP of a radiopharmaceutical is largely dependent on radiolabeling conditions such as pH, heating temperature and time. Once a radiopharmaceutical is prepared in high yield, the stability of the radiopharmaceutical composition is measured by the` RCP change of the radiopharmaceutical over a certain period of time. For comparison purposes, sodium gentisate or sodium ascorbate was often used as the reference since they have been used in various radiopharmaceutical formulations.
HPLC method 3 used a HP-1100 HPLC system with a UV/visible detector (λ=220 nm), an IN-US radio-detector, and a Zorbax C18 column (4.6 mm×250 mm, 80 Å pore size). The flow rate was 1 mL/min with a gradient mobile phase starting from 90% solvent A (0.025 M ammonium acetate buffer, pH 6.8) and 10% solvent B (acetonitrile) at 0 min to 88% solvent A and 12% solvent B at 18 min, followed by an isocratic wash using 40% of solvent A and 60% solvent B from 19 to 25 min.
The ITLC method used Gelman Sciences silica-gel ITLC paper strips and 1:1 mixture of acetone and saline as eluant. By this method, the radiolabeled compounds migrate to the solvent front while [^90Y]/^177Lu]colloid and [^90Y]/^177Lu]acetate remain at the origin.
(§1) The 0.5 M ammonium acetate buffer (pH 8.0) was first degassed under vacuum for 1-2 min. COMPOUND C and gentisic acid (sodium salt, GA) were dissolved in the degassed buffer to give a concentration of 100 μg/mL for COMPOUND C and 2 mg/mL for GA. The resulting solution was immediately degassed under vacuum for another 1-2 min. To a clean sealed 5 mL vial was added 1.0 mL of the degassed 0.5 M ammonium acetate buffer (pH 8.0) containing 100 μg COMPOUND C and 2 mg GA. The solution was degassed again under vacuum. Upon addition of ˜20 μL of ^177LuCl3 solution (˜20 mCi) in 0.05 N HCl, the reaction mixture was heated at 100° C. for 5 min. After cooling to room temperature, a sample of the resulting solution was analyzed by HPLC (Method 3, injection volume=5 μL) and ITLC. […] To the solution above was added 0.5 mL of sodium ascorbate solution (40 mg/mL in 0.5 M ammonium acetate buffer, pH=7.4). The resulting mixture was then kept in a dry-ice box (−78° C.) for 7 days. Samples were analyzed at t=0, 3 and 7 days.
as §1, with “COMPOUND” for “The 0.5 M ammonium acetate buffer (pH 8.0) was first degassed under vacuum for 1-2 min. COMPOUND”, “1.0 μL” for “1.0 mL”, “of 2,3,4-THBA” for “of sodium ascorbate”, “solution (20” for “solution (40”
COMPOUND C and gentisic acid (sodium salt, GA) were dissolved in the degassed buffer to give a concentration of 100 μg/mL for COMPOUND C and 2 mg/mL for GA. The resulting solution was immediately degassed under vacuum for another 1-2 min. […]

[2] = as above; type: physicochemical; conditions: ^177Lu-C prepared using 2 mg GA, degassed, second stabilizer (20 mg AA, 20 mg DSA, 10 mg 2,3,4-THBA, 10 mg 3,4,5-THBA) added post-labeling

Compound | RCP (%) t = 0 [1] | RCP (%) t = 3 days [1] | RCP (%) t = 7 days [1] | RCP (%) change [1] | stabilization compared with AA and DSA [1] | RCP (%) t = 1 day [2]
O=C(O)c1cc(O)c(O)c(O)c1 [3,4,5-THBA, 3,4,5-trihydroxybenzoic acid] | 97.2% | 96.7% | 95.0% | 2.2% | better stabilization | 97.9%
O=C(O)c1ccc(O)c(O)c1O [2,3,4-THBA, 2,3,4-trihydroxybenzoic acid] | 97.4% | 96.5% | 95.4% | 2.0% | better stabilization | 96.6%
2,4-disulfonatobenzeneamine [DSA] | 97.4% | 95.9% | 93.0% | 4.4% |  | 97.4%

— patent US20020122768A1, “Stable radiopharmaceutical compositions and methods for preparation thereof” (priority 2000, published 2002)
